From patent US12551562B2, “Methods and compositions for irreversible enzyme inhibition” (TRITERPENOID THERAPEUTICS, INC., priority 2019, dated 2026)

Experiments:
[1] = target: T1, His-GSTP (Homo sapiens, UniProt P09211); test: Modification of His-GSTP by triterpenoids, LC-MS/MS of tryptic digests; assay type: binding
T1 construct: made in house; host or cells: E. coli
Protocol: His-GSTP was expressed in E. coli as described previously. Purified His-GSTP captured on nickel beads was incubated with a range of concentrations of CDDO-Im (50 nM-10 μM) in phosphate buffer, pH 7.4 for 16 h. CDDO-Me (0.5 mM) was used as a positive control. The beads were then washed 5 times with 1000 μL phosphate buffer. The protein was subjected to on-bead tryptic digestion. In brief, a suspension beads in 30 μL of 50 mM ammonium bicarbonate buffer was incubated with 20 ng of trypsin for 16 h at 37° C. and the digest was analyzed by LC-MS/MS.
(§1) The tryptic peptides were analyzed by a Triple TOF 5600 mass spectrometer (Sciex). Samples were reconstituted in 50 μL 0.1% formic acid (FA) and 2 μL of samples were delivered into the instrument using an Eksigent Nano-LC system mounted with a nanoACQUITY UPLC Symmetry C18 Trap Column and an analytical BEH C18 nanoACQUITY Column (Waters, MA, USA). A NanoSpray III source was fitted with a 10 μm inner diameter PicoTip emitter (New Objective). Samples were loaded in 0.1% formic acid onto the trap, which was then washed with 2% ACN/0.1% FA for 10 min at 2 μL/min before switching in-line with the analytical column. A gradient of 2-50% (v/v) ACN/0.1% (v/v) FA over 90 min was applied to the column at a flow rate of 300 nL/min. Spectra were acquired automatically in positive ion mode using information-dependent acquisition, using mass ranges of 400-1600 amu in MS and 100-1400 amu in MS/MS. Up to 25 MS/MS spectra were acquired per cycle (approximately 10 Hz) using a threshold of 100 counts per s, with dynamic exclusion for 12 s and rolling collision energy. Sequence coverage was determined using ProteinPilot software, v4.0 and the most recent version of the SwissProt database.

[2] = target: T2, HSA (Homo sapiens, UniProt P02768); test: Modification of HSA by triterpenoids, LC-MS/MS of tryptic digests; assay type: binding
T2 construct: contains 585 amino acids (corresponding to 25-609 of P02768); purchased Sigma-Aldrich
T2 sequence (P02768 25-609): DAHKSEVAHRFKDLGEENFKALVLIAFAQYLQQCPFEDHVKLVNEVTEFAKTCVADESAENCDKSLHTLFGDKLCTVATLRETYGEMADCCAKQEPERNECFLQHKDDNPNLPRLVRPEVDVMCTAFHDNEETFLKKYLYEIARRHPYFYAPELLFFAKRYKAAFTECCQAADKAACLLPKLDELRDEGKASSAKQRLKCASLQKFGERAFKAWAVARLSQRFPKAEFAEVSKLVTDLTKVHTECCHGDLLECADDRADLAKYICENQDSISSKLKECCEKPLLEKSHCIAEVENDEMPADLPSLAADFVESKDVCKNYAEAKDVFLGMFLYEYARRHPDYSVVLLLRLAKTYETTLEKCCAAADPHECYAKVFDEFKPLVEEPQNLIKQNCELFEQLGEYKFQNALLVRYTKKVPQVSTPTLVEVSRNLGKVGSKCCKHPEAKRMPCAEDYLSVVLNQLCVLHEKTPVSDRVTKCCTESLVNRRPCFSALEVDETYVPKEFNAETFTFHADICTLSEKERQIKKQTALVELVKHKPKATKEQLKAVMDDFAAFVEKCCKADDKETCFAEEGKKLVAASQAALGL
Protocol: Triterpenoids were dissolved in DMSO to make up 1 mM stock solutions, followed by dilutions in phosphate buffer (10 mM, pH 7.4) and incubated with recombinant HSA (0.6 mM, 50 μL) in sealed Eppendorf tubes at 37° C. for 16 h. The molar ratios of drug to protein were 0.00001:1, 0.0001:1, 0.001:1, 0.01:1, 0.1:1, and 1:1. Protein was precipitated twice with 9 volumes of ice-cold methanol to remove free drug, resuspended in 50 μL phosphate buffer and then reduced with 10 mM dithiothreitol (15 min) and alkylated with 55 mM iodoacetamide (15 min) at room temperature. The protein was precipitated with methanol once more and finally dissolved in 100 μL 50 mM ammonium hydrogencarbonate, and 165 μg […] of protein was digested with 1.6 μg trypsin overnight at 37° C.
To examine the time-dependent modification of HSA by triterpenoids, 10 μM triterpenoids was incubated with HSA (0.6 mM, 300 μL) at 37° C. Aliquots of 50 μL were removed after 10, 30, 60, and 180 minutes and processed for LC-MS/MS analysis.
(§2) The tryptic peptides were analyzed by a Triple TOF 5600 mass spectrometer (Sciex). […] Sequence coverage was determined using ProteinPilot software, v4.0 and the most recent version of the SwissProt database.

[3] = target: T3, recombinant Keap1 (Homo sapiens, UniProt Q14145); test: Modification of Keap1 by triterpenoids, LC-MS/MS of tryptic digests; assay type: binding; details: 100 μM, 16 h
T3 construct: made in house
T3 sequence (Q14145 whole entry): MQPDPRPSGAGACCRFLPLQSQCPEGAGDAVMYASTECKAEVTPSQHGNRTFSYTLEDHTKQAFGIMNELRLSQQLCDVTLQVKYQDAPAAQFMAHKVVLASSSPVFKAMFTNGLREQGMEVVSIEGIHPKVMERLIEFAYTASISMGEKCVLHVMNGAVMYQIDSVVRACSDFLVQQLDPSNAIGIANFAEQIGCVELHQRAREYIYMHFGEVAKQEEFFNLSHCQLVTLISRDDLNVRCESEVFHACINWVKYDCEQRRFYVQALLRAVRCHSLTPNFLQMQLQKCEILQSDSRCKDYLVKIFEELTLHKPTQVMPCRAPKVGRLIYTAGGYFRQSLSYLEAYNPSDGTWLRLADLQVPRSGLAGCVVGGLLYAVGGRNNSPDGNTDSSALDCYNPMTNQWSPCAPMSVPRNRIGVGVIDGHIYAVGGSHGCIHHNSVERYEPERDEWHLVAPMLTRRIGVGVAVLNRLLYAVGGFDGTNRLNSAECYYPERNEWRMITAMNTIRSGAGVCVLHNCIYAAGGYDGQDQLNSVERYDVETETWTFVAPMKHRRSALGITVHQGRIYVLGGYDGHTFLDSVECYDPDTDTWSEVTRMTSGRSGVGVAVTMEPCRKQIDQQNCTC
Protocol: Triterpenoids were dissolved in DMSO to make up 1 mM stock solutions, followed by dilutions in phosphate buffer (10 mM, pH 7.4) and incubated with recombinant Keap1 proteins produced in house at 37° C. for 16 h. The final concentration of triterpenoids was 100 μM. The mixture was then purified by 1D-gel electrophoresis using an established protocol, followed by in gel-digestion. The digests were further purified by C18-ziptiping and analyzed by LC-MS/MS.
as §1, with “Spectra were acquired automatically in positive ion mode using information-dependent acquisition, using mass ranges of 400-1600 amu in MS and 100-1400 amu in MS/MS. Up to 25 MS/MS spectra were acquired per cycle (approximately 10 Hz) using a threshold of 100 counts per s, with dynamic exclusion for 12 s and rolling collision energy.” left out

[4] = target: T4, LONP protein (Homo sapiens, UniProt P36776); test: Modification of LONP by triterpenoids, LC-MS/MS of tryptic digests; assay type: binding; details: 100 μM, 16 h; lysine (3), cysteine (3), tyrosine (2)
T4 construct: Professor John Letterio (supplied; not a vendor)
T4 sequence (P36776 68-959): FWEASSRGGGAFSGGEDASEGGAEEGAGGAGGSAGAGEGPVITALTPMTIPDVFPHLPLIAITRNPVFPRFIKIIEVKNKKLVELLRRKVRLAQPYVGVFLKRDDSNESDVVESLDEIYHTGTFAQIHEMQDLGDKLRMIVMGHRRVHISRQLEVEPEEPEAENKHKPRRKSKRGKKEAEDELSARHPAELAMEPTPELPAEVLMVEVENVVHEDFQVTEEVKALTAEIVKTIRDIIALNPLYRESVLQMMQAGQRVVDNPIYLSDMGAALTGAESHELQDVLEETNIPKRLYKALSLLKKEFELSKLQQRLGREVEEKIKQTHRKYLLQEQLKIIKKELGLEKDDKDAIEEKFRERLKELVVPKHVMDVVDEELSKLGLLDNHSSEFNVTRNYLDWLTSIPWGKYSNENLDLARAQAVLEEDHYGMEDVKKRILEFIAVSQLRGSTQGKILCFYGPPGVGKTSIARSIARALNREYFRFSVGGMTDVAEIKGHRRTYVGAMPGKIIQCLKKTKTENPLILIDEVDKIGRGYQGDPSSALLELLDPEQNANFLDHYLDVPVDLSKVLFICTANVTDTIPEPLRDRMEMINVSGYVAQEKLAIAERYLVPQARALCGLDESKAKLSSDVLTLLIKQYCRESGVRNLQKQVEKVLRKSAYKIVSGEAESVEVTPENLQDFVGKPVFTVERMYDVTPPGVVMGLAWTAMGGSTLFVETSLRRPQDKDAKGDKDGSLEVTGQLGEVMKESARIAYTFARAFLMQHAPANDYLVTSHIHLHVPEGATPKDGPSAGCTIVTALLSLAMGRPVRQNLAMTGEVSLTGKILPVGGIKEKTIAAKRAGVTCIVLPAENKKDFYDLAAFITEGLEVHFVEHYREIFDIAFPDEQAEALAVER
Protocol: The LONP protein (Professor John Letterio) was first purified by buffer exchange using spin filters (3K MWCO). 10 μg protein was then incubated with CDDO-2P-Im (100 μM) in phosphate buffer (10 mM, pH 7.4) at 37° C. for 16 h. The mixture was then purified by 1D-gel electrophoresis using an established protocol, followed by in gel-digestion. The digests were further purified by C18-ziptiping and analyzed by LC-MS/MS.
as §1, with “Spectra were acquired automatically in positive ion mode using information-dependent acquisition, using mass ranges of 400-1600 amu in MS and 100-1400 amu in MS/MS. Up to 25 MS/MS spectra were acquired per cycle (approximately 10 Hz) using a threshold of 100 counts per s, with dynamic exclusion for 12 s and rolling collision energy.” left out

[5] = system: Epstein-Barr virus-transformed B-cell lines; test: Modification of B cell intracellular proteins by triterpenoids, proteomics LC-MS/MS; assay type: cell-based, human
Protocol: Epstein-Barr virus-transformed B-cell lines were generated with previously described methods by incubating PBMC with supernatant from the Epstein-Barr virus-producing cell line B9-58. B cells were maintained in F1 medium at 37° C., 5% CO2. Cells were plated into an 8-well plate at a concentration of 1×10^6 cells/ml and treated with triterpenoids at different concentrations (0, 1, 10 μM) for 16 hours. 200 μL cells were then plated (1×10^5 cells/well) into a 96-well plate, [^3H]-thymidine (0.5 μCi/well) was then added and incubated for 16 hours. Cell was harvested and the proliferative responses were measured by [^3H]-thymidine incorporation. For the remaining cells, supernatants were removed for ELISA (TNFα, IL10, and IFNγ) and proteomics analysis. The cells were then washed in PBS and lysed with 2D lysis buffer (40 mM Tris base, 7M urea, 2M thiourea, 4% (w/v) CHAPS, and 1% DTT). Cell lysates were sonicated and centrifuged at 18000 rpm for 20 minutes at […]. Supernatants were collected and the protein concentrations were measured by BCA assay. Proteins were denatured and processed for mass spectrometric analysis.
as §2

T1 sequence (P09211 whole entry): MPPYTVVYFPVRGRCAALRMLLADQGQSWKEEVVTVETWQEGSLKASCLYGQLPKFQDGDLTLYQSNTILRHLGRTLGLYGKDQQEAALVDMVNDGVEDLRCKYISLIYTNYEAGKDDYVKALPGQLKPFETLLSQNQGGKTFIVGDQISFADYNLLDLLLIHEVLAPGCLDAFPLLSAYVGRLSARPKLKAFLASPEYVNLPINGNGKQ

SMILES	covalent binding to GSTP, dependence on concentration ([1]; 16 hour incubation at 37° C.)	plateau of binding to GSTP ([1]; in comparison to CDDO-Im, 16 hour incubation at 37° C., FIG. 1C/1D)	preferred binding site on GSTP ([1]; increasing drug concentrations, 16 hour incubation at 37° C., FIG. 1D)	number of CDDO-modified HSA peptides ([2]; 500 μM, 16 h, lysine (9), arginine (2), serine (7), tyrosine (5))	modification of Cys151 of Keap1 [3]	number of binding sites identified on Keap1 ([3]; phosphate buffer pH 7.4)	number of modified LONP peptides [4]	number of modified B cell proteins identified ([5]; 10 μM for 16 hours)	modification of the 4 active cysteine residues of PPIA ([5]; B cells treated with 10 μM for 16 hours)	lowest concentration at which adducts with GSTP were detectable ([1]; phosphate buffer pH 7.4, 16 h, 50 nM-10 μM tested) [nM]	site of the simple Michael adduct (CDDO carboxylate, +491.5 amu) on GSTP ([1]; tryptic digests of treated GSTP)	modification of HSA, dependence on concentration and time ([2]; normalized ion counts of modified peptides)
CC1(C)CC[C@]2(C(=O)n3cnc(-c4ccccn4)c3)CC[C@]3(C)[C@H](C(=O)C=C4[C@@]5(C)C=C(C#N)C(=O)C(C)(C)[C@@H]5CC[C@]43C)[C@@H]2C1 [CDDO-2P-Im, 1-[2-Cyano-3,12-dioxooleana-1,9(11)-dien-28-oyl]-4(-pyridin-2-yl)-1H-imidazole]	bind to GSTP in a similar manner	binding does not plateau above 5 μM	Cys48	23	not detected	8	8	32	all modified			
CC1(C)CC[C@]2(C(=O)n3ccnc3)CC[C@]3(C)[C@H](C(=O)C=C4[C@@]5(C)C=C(C#N)C(=O)C(C)(C)[C@@H]5CC[C@]43C)[C@@H]2C1 [CDDO-Im, 1-(2-cyano-3,12-dioxooleana-1,9(11)-dien-28-oyl) imidazole]	concentration-dependent									50	only detected on Cys48	concentration- and time-dependent
